Results on two compounds are retold here after PMC3076703 (Pharmacogenetics and genomics, 2010).

Substitutions are numbered along the chain they refer to.

One series has as its target T1, UGT1A4^24Thr/48Leu (Homo sapiens, UniProt P22310).
T1 sequence (P22310 29-534): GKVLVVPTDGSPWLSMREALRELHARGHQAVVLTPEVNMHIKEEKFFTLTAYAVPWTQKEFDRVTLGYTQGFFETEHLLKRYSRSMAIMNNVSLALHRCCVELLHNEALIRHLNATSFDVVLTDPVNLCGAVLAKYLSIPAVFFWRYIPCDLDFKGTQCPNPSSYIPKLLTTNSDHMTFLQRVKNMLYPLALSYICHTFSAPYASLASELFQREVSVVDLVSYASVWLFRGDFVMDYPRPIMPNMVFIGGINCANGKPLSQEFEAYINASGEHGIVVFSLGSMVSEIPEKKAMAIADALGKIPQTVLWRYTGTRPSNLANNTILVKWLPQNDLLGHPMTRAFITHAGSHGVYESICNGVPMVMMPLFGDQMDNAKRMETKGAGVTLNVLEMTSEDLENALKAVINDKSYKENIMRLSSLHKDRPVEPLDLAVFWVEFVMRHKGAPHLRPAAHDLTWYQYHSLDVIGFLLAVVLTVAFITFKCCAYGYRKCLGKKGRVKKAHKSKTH
Nature of the series: Glucuronidation assay, UGT1A4 24Thr/48Leu-overexpressing HEK293 cell homogenate. In kind it is in vitro ADME.

Series [1] relates to UGTs 1A1, 1A3, 1A6, 1A7, 1A9, 2B4, 2B7, 2B10, 2B11, 2B15. In kind it is in vitro ADME, human. To be noted: other UGTs screened; up to 1 mg of UGT-overexpressing cell homogenate.
For the next series, the target named is T2, UGT1A4^24Pro/48Leu (Homo sapiens, UniProt P22310).
T2 sequence (P22310 29-534): T1 sequence (P22310 29-534)
Nature of the series: Glucuronidation assay, UGT1A4 24Pro/48Leu-overexpressing HEK293 cell homogenate. In kind it is in vitro ADME.

A further series concerns the target T3, UGT1A8 (Homo sapiens, UniProt Q9HAW9).
T3 sequence (Q9HAW9 26-530): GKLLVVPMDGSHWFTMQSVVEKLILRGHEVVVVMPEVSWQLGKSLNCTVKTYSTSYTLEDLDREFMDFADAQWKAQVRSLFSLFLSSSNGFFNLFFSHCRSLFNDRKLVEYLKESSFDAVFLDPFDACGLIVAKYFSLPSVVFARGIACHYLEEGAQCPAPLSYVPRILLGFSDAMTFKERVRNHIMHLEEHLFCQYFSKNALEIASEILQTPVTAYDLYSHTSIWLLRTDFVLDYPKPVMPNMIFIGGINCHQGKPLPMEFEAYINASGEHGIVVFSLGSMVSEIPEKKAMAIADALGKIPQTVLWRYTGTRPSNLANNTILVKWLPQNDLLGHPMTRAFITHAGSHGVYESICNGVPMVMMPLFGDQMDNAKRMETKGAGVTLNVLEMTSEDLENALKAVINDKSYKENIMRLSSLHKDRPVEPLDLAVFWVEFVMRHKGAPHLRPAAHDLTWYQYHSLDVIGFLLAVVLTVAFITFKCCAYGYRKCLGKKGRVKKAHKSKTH
Nature of the series: Glucuronidation assay, UGT1A8-overexpressing HEK293 cell homogenate. In kind it is in vitro ADME.

The target in the next series is T4, UGT1A4^24Pro/48Val (Homo sapiens, UniProt P22310, L48V).
T4 sequence (P22310 29-534 L48V): T1 sequence (P22310 29-534) with L20V
In kind it is in vitro ADME.

The next series concerns the target T5, UGT2B17 (Homo sapiens, UniProt O75795).
T5 sequence (O75795 24-530): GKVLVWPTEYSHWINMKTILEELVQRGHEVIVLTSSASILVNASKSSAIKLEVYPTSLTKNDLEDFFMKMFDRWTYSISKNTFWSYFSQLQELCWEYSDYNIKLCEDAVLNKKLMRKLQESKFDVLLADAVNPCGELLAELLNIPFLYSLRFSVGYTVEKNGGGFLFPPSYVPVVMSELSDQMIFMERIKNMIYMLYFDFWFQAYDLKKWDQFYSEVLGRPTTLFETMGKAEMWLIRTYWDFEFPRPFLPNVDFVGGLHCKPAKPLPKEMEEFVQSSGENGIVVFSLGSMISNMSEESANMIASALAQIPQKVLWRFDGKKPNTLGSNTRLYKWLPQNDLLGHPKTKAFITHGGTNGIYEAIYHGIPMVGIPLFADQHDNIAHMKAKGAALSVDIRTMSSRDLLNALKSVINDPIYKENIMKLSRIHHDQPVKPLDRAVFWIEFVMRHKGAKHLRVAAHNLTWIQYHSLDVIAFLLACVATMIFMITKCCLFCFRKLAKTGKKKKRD
In kind it is in vitro ADME.

For series [2] the following is noted: individuals taking exemestane; cited from earlier work.
For series [3] the following is noted: human; cited from earlier work.

For orientation: Km means the substrate concentration at which the rate is half of its maximum. For the compound `C=C1C[C@H]2[C@@H]3CC[C@H](O)[C@@]3(C)CC[C@@H]2[C@@]2(C)C=CC(=O)C=C12` [17-dihydroexemestane], the Km was determined as 28 ± 7.8 µM on UGT1A4^24Thr/48Leu; 34 ± 3.9 µM at UGT1A4^24Pro/48Leu (UGT1A4 24Pro/48Leu); 14 ± 3.9 µM at UGT1A8; 36 ± 5.4 µM at UGT1A4^24Pro/48Val; 15 ± 2.7 µM at UGT2B17. Further, the Vmax at UGT1A4^24Thr/48Leu (normalized per μg UGT protein) is recorded as 0.26 ± 0.04 pmol/min/μg UGT protein; at UGT1A4^24Pro/48Leu (UGT1A4 24Pro/48Leu, normalized per μg UGT protein), 0.27 ± 0.01 pmol/min/μg UGT protein; at UGT1A8 (normalized per μg UGT protein), 0.30 ± 0.06 pmol/min/μg UGT protein; at UGT1A4^24Pro/48Val (normalized per μg UGT protein), 0.40 ± 0.03 pmol/min/μg UGT protein; on UGT2B17 (normalized per μg UGT protein), 2.0 ± 0.25 pmol/min/μg UGT protein. Also, the “glucuronidation activity in UGT screen” value in series [1] is reported as “None of the other UGTs screened in our assays exhibited any glucuronidation activity”; at UGT1A4^24Pro/48Leu (UGT1A4, up to 600 μmol/l substrate), “detectable activity”; at UGT1A8 (up to 600 μmol/l substrate) it was “detectable activity”; on UGT2B17 (up to 600 μmol/l substrate), “detectable activity”. In addition, in series [2], the “plasma level as share of parent exemestane” value is listed as 35–40%.

In the case of `C=C1C[C@@H]2[C@H](CC[C@]3(C)C(=O)CC[C@@H]23)[C@@]2(C)C=CC(=O)C=C12` [exemestane, 6-methylenandrosta-1,4-diene-3,17-dione], in series [3], the “excreted as parent compound” value is 1%, the fecal excretion entry is “around 42%” and the urinary excretion result is “around 42%”.
